pIC50: −log10 of the molar value. Counter-ions that a name gives are not always drawn. Bounds are passed on as bounds.

For 3 compounds, IC50 results are on record in patent publication US5238958A, “Substituted α-amino acids having selected acidic moieties for use as excitatory amino acid antagonists in pharmaceuticals” (Warner-Lambert Company, priority 1990, dated 1993).

For this experiment, the target named is NMDA receptor. The experiment in a line: NMDA receptor binding assay using [3H]CPP as antagonist ligand. Conditions: in vitro, essentially as Murphy et al, J. Pharm. Exp. Ther. 240:778 (1987). From the text:
The activity of the compounds of the formula I is shown in vitro in an NMDA receptor binding assay based on the use of [^3 H]CPP as antagonist ligand in a manner essentially as set out by B. E. Murphy, et al, in J. Pharm. Exp. Ther. 240:778 (1987).
Turning to `NC(C(=O)O)c1ccc(CC(=O)O)c(O)c1` (racemic) [Example I3, 1,4-Benzenediaoetic acid, α-amino-2-hydroxy-,-monohydrochloride, (±)], the pIC50 is over 4.00. The result for `NC(C(=O)O)c1ccc(CC(=O)O)cc1` (racemic) [Example I1, 1,4-Benzenediacetic acid, α-amino-, (±)] reads over 4.00; that for `NC(C(=O)O)c1ccc(O)c(CC(=O)O)c1` (stereo not drawn) [Example I2, α-Amino-4-hydroxy-1,3-benzenediacetic acid], over 4.00.
